This is an account of results in article PMC12732608, “Synthesis and Evaluation of Novel 2-((1H-1,2,4-triazol-5-yl)thio)-N-benzylidene-N-phenylacetohydrazide as Potential Antimicrobial Agents” (International Journal of Molecular Sciences, 2025).

For one data set, the system named is E. coli. Set-up: method as in PMID 22906969. To be noted: comparable to ampicillin; cited from earlier work.
The subject of the next data set is S. aureus. Also noted: method as in PMID 22906969. To be noted: comparable to ampicillin; cited from earlier work.
Data set [1] in a line: MTT cytotoxicity assay on HEK cells. The data set is classed as cell-based. To be noted: human, HEK (human embryonic kidney) cells, compared to DMSO control, read-out: cell viability. How it is done:
Cytotoxicity was evaluated on HEK (human embryonic kidney) cell lines using the MTT assay. […] Cells were grown in a medium that was supplemented with 10% FBS and 1% penicillin–streptomycin. This was incubated at 37 °C in a 5% CO2 atmosphere for 24 h. Cells were seeded at 1 × 10^3 cells/well in 96-well plates and allowed to adhere overnight. They were then treated with the test compounds, dissolved in DMSO, at a uniform concentration. […] The control wells contained untreated cells or cells treated with DMSO alone. After 24 h of treatment, 10 µL of the MTT solution (5 mg/mL) was added to each well and incubated for 3 h to allow formazan crystal formation. A solubilization solution (100 µL) was then added to dissolve the crystals. The absorbance at 570 nm was measured using a microplate reader. Cell viability was calculated as a percentage relative to the untreated control. All assays were performed in triplicate.

The test system of data set [2] is Klebsiella aerogenes ATCC 13048. As to the kind of experiment: Growth kinetics assay (OD600) against K. aerogenes. The data set is classed as cell-based. To be noted: 0.5 mg/mL, 6 h, K. aerogenes ATCC 13048. The procedure: (§1) Both Gram-positive and Gram-negative bacterial strains were employed in the experiment to assess antibacterial activities of the synthesized compounds. Gram-negative Klebsiella aerogenes ATCC 13048 and Gram-positive Enterococcus species MVBP-18 strains were used for the study. Bacterial strains of both were cultured in Luria–Bertani (LB) broth for optimal growth conditions. Bacterial cultures were sustained by culturing a fresh colony from newly streaked LB agar plates to 5 mL of LB medium and incubated at 37 °C with shaking at 200 rpm continuously for 16–18 h in order to achieve the logarithmic growth phase. Overnight cultures, after incubation, were standardized by dilution to an OD600 of 0.05, which contained equal bacterial inoculum for any experimental condition. These optimized cultures were employed for subsequent antibacterial tests, such as growth kinetics analysis, to determine the impact of the test compound on bacterial growth. A preliminary screening was conducted in a 96-well microplate format. Standardized bacterial cultures were treated with the compounds at a final concentration of 0.5 mg/mL. Control wells included untreated bacteria and a DMSO control. The plate was incubated at 37°C, with shaking at 200 rpm continuously, and bacterial growth was monitored by measuring the OD600 every hour for six hours using a microplate reader ( BioTek Synergy H1). The assay was performed in triplicate.

Data set [3] deals with Enterococcus species MVBP-18. The data set can be described thus: Growth kinetics assay (OD600) against Enterococcus sp. To be noted: 0.5 mg/mL, 6 h, Enterococcus sp. MV BP 18. The class given is cell-based. The procedure:
as §1, with “The assay was performed in triplicate.” left out

For the next data set, the system named is Enterococcus sp. The data set can be described thus: CFU enumeration (time-kill) against Enterococcus sp. To be noted: over 3 h incubation. The data set is classed as cell-based. How it is done:
as §1, with “[…] Bacterial” for “A preliminary screening was conducted in a 96-well microplate format. Standardized bacterial cultures were treated with the compounds at a final concentration of 0.5 mg/mL. Control wells included untreated bacteria and a DMSO control. The plate was incubated at 37°C, with shaking at 200 rpm continuously, and bacterial”, “both” for “measuring”, “readings over 4–7 h and colony-forming unit (CFU) enumeration. For CFU counting, aliquots from the wells were serially diluted, plated on LB agar, and incubated overnight at 37 °C.” for “every hour for six hours using a microplate reader ( BioTek Synergy H1).”, “resulting colonies were counted to determine the CFU/mL. All validation experiments were also conducted” for “assay was performed”

The next data set concerns K. aerogenes. As to the kind of experiment: CFU enumeration (time-kill) against K. aerogenes. To be noted: for effect on viable bacterial count (CFU assay), in words: within 3 h; for terminal viable bacterial count: terminal values (3 h time course). The data set is classed as cell-based, Klebsiella aerogenes. The procedure: as §1, with “[…] Bacterial” for “A preliminary screening was conducted in a 96-well microplate format. Standardized bacterial cultures were treated with the compounds at a final concentration of 0.5 mg/mL. Control wells included untreated bacteria and a DMSO control. The plate was incubated at 37°C, with shaking at 200 rpm continuously, and bacterial”, “both” for “measuring”, “readings over 4–7 h and colony-forming unit (CFU) enumeration. For CFU counting, aliquots from the wells were serially diluted, plated on LB agar, and incubated overnight at 37 °C.” for “every hour for six hours using a microplate reader ( BioTek Synergy H1).”, “resulting colonies were counted to determine the CFU/mL. All validation experiments were also conducted” for “assay was performed”

Details of data set [4]: method as in earlier work. To be noted: comparable to ciprofloxacin; cited from earlier work.

Entries after “also recorded” stand apart in the source; their conditions may differ.

Regarding `NNC(=O)CSc1nc(N=Cc2ccc(Br)cc2)n[nH]1` [2-{3-[4-bromobenzylidene)amino]-1H-1,2,4-triazol-5-ylthio}acetohydrazide], the antibacterial activity entry in the data set on E. coli and with S. aureus was “strong antibacterial activity” in each case.

As for `O=C(CSc1nc[nH]n1)N(/N=C/c1ccccc1)c1ccccc1` [Compound 4a, E-2-((1H-1,2,4-triazol-3-yl)thio)-N′-benzylidene-N-phenylacetohydrazide], the viability at 24 h, 0.5 mg/mL in data set [1] is 72.6%.

With `O=C(CSc1nc[nH]n1)N(/N=C/c1ccccc1Cl)c1ccccc1` [Compound 4b, E-2-((1H-1,2,4-triazol-3-yl)thio)-N′-(2-chlorobenzylidene)-N-phenylacetohydrazide], in data set [2], the “growth inhibition (OD600 growth kinetics)” value (“growth inhibition” for short) is given as “mild inhibitory activities”. In addition, the viability at 24 h, 0.5 mg/mL in data set [1] was determined as 68.7%.

For the molecule `O=C(CSc1nc[nH]n1)N(/N=C/c1ccc(Br)cc1)c1ccccc1` [Compound 4e, E-2-((1H-1,2,4-triazol-3-yl)thio)-N′-(4-bromobenzylidene)-N-phenylacetohydrazide], the viability at 24 h, 0.5 mg/mL in data set [1] was found to be 87.4%.

For `O=C(CSc1nc[nH]n1)N(/N=C/c1ccccc1F)c1ccccc1` [Compound 4g, E-2-((1H-1,2,4-triazol-3-yl)thio)-N′-(2-fluorobenzylidene)-N-phenylacetohydrazide], the “growth inhibition” value in data set [3] was “most potent inhibitor”; in data set [2] it was “most significant growth inhibition; also recorded: highest degree of growth inhibition”. The viable bacterial counts in the data set on Enterococcus sp. is ~ 10^7 CFU/mL. Further, the viable counts result in the data set on K. aerogenes (at 2 h, maintained at 3 h) is given as “below 10^7 CFU/mL”. The “effect on viable bacterial count (CFU assay), in words” value (“effect on viable bacterial count” below) in the data set on K. aerogenes is listed as “reduced viable numbers by several orders of magnitude”. Moreover, the viability at 24 h, 0.5 mg/mL in data set [1] was found to be 96%.

Take `O=C(CSc1nc[nH]n1)N(/N=C/c1cccc(Br)c1)c1ccccc1` [Compound 4h, E-2-((1H-1,2,4-triazol-3-yl)thio)-N′-(3-bromobenzylidene)-N-phenylacetohydrazide]: the “growth inhibition” value in data set [2] is listed as “mild inhibitory activities”. For the same molecule, in data set [1], the viability at 24 h, 0.5 mg/mL came to 73%.

`O=C(CSc1nc[nH]n1)N(/N=C/c1c(Cl)cccc1Cl)c1ccccc1` [Compound 4j, E-2-((1H-1,2,4-triazol-3-yl)thio)-N′-(2,6-dichlorobenzylidene)-N-phenylacetohydrazide]: the viability at 24 h, 0.5 mg/mL in data set [1] was found to be 71.6%.

For `COc1cc(/C=N/N(C(=O)CSc2nc[nH]n2)c2ccccc2)cc(OC)c1OC` [Compound 4l, E-2-((1H-1,2,4-triazol-3-yl)thio)-N-phenyl-N′-(3,4,5-trimethoxybenzylidene)acetohydrazide], in data set [2], the “growth inhibition” value is listed as “mild inhibitory activities”. In the data set with K. aerogenes, the “terminal viable bacterial count” value is listed as 10^8–10^9 CFU/mL and the “effect on viable bacterial count” value is recorded as “moderate-level reduction”. Besides, the viability at 24 h, 0.5 mg/mL in data set [1] was 55.8%.

As for `O=C(CSc1nc[nH]n1)N(/N=C/c1cccs1)c1ccccc1` [Compound 4n, E-2-((1H-1,2,4-triazol-3-yl)thio)-N-phenyl-N′-(thiophen-2-ylmethylene)acetohydrazide], the “growth inhibition” value in data set [2] is given as “most significant growth inhibition”. Moreover, in the data set with K. aerogenes, the “terminal viable bacterial count” value is 10^8–10^9 CFU/mL and the “effect on viable bacterial count” value is reported as “moderate-level reduction”. For the same molecule, in data set [1], the viability at 24 h, 0.5 mg/mL turned out to be 52.8%.

Regarding `Cc1ccc(-n2c(SCC(=O)NC3CCCCC3)nnc2-c2ccncc2)cc1` [N-Cyclohexyl-2-[5-(4-pyridyl)-4-(p-tolyl)-4H-1,2,4-triazole-3-sulfanyl]-acetamide], the antibacterial activity entry in data set [4] is “good level of inhibition”.
